Test results: paper PMC10638401, “Mannich-type modifications of (−)-cannabidiol and (−)-cannabigerol leading to new, bioactive derivatives” (Scientific Reports, 2023)
≈ marks a conversion by molar mass, not a printed value. Like-named read-outs stand apart in the source and are kept apart here.

Legend:
[1] = system: Enterococcus faecalis 15 376 VanA; assay: MIC, broth micro dilution
SZ95 sebocytes [2] = assay: Nile Red-assay, arachidonic acid-induced lipogenesis; type: cell-based, human; conditions: 50 μM arachidonic acid, 48 h
Method: (§1) Human immortalized SZ95 sebocytes, originated from human facial sebaceous glands[50] were provided by prof. Christos C. Zouboulis, and were cultured in Sebomed® Basal Medium (Cat. No. F8205; Sigma-Aldrich) supplemented with 10% FBS (Gibco-Thermo Fisher Scientific), 1 mM CaCl2 (Cat. No. C7902; Sigma-Aldrich), 5 ng/ml human epidermal growth factor (Cat. No. E9644; Sigma-Aldrich), and MycoZap™ Plus-CL (1:500; Lonza). The medium was changed every other day, and cells were subcultured at 60–70% confluence.
For quantitative measurement of sebaceous (neutral) lipid content, SZ95 sebocytes (20,000 cells/well) were cultured in 96-well “black well/clear bottom” plates (Cat. No. 655090; Greiner Bio-One, Frickenhausen, Germany), and were treated with compounds in the presence or absence of arachidonic acid (AA; Cat. No. 90010; Cayman Chemical Company, Ann Arbor, MI, USA) or its vehicle (absolute ethanol) as indicated. Subsequently, supernatants were discarded, cells were washed twice with phosphate-buffered saline (PBS; 115 mM NaCl, 20 mM Na2HPO4, pH 7.4; all from Sigma-Aldrich), and 100 µl of a 1 µg/ml Nile Red (Cat. No. N3013; Sigma-Aldrich) solution in PBS was added to each well. The plates were then incubated at 37 °C for 30 min, and fluorescence was measured on FlexStation 3 multimode microplate reader (Molecular Devices, San Francisco, CA, USA). Results, measured in relative fluorescence units, are expressed as percentage of the vehicle (absolute ethanol; Cat. No. 20821.296; VWR International)-treated control regarded as 100%, using 485 nm excitation and 565 nm emission wavelengths.

SARS-CoV-2 [3] = assay: SARS-CoV-2 cytopathic effect (CPE) inhibition assay in Vero E6 cells (XTT); type: cell-based; conditions: for EC50: Vero E6 cells, 3 days post-infection, XTT
Method: (§2) CBD and CBG derivatives were further tested for their ability to inhibit SARS-CoV-2 replication in Vero E6 cells. Initially, the inhibition of virus-induced cytopathic effect was measured by addition of twofold serial dilutions of each derivative to the cells, followed by the infection with SARS-CoV-2 and determination of the cell viability 3 days post-infection by XTT assay. Concurrently, the cytotoxicity of each compound was assessed from identical dilutions in uninfected Vero E6 cells. To confirm anti-SARS-CoV-2 activity in the CPE inhibition assay, selected compounds were tested in immunofluorescence assay, where inhibition of SARS-CoV-2 replication was monitored as reduction in nucleoprotein expression using fluorescence microscope. […] Among the CBG derivatives, we can find quite cytotoxic and non-cytotoxic derivatives as well.
(§3) For CPE-based assay, two-fold fold serial dilutions of compounds from 100 µM were added in triplicate in a 384-well plate with 5000 Vero E6 cells in DMEM medium with 2% FBS, 100 U of penicillin/ml and 100 µg of streptomycin/ml (all Merck). After 1 h incubation SARS-CoV-2 (strain hCoV-19/Czech Republic/NRL_6632_2/2020) was added at multiplicity of infection […]. Following three days incubation at 37 °C in 5% CO2 the cell viability was determined by addition of XTT solution (Sigma-Aldrich) for 4 h and the absorbance was measured using EnVision plate reader (Perkin Elmer). Drug concentrations required to reduce viral cytopathic effect by 50% (EC50) were calculated using nonlinear regression from plots of percentage cell viability versus log10 drug concentration using GraphPad Prism (version 9.0.0, GraphPad Software, LLC). For immunofluorescence assay, two-fold fold serial dilutions of compounds from 100 µM were added in triplicate in 96-well plate with 15,000 Vero E6 cells plated day before in the same medium as above. After 1 h incubation, SARS-CoV-2 was added at multiplicity of infection 0.05 IU/cell. After three days of incubation, cells were fixed with 4% paraformaldehyde, permeabilized with 0.2% Triton X100 (both Merck), washed, incubated with anti-SARS-CoV-2antibody (mouse monoclonal antibody detecting SARS-CoV-2 nucleoprotein) for 2 h at room temperature. Followed by 1.5 h incubation with Cy3-labeled donkey anti-mouse IgG (Jackson ImmunoResearch Europe) and documented using fluorescence microscope with camera (Olympus). Images were processed in ImageJ software (NIH) and compound concentrations required to reduce fluorescence by 50% (EC50s) were calculated from plots of percentage of fluorescent cells versus log10 drug concentration using nonlinear regression analysis as above. Cytotoxicity was evaluated by incubating with the same two-fold serial dilutions of each compound as above with Vero E6 cells in 384-well plate.

Vero E6 cells = conditions: uninfected Vero E6 cells, three days, XTT
[4] = system: Enterococcus faecalis 29 212; assay: MIC, broth micro dilution
Method: (§6) According to CLSI guideline the Minimal Inhibitory Concentrations (MICs) of the prepared compounds were determined with the broth micro dilution method. After an overnight growth on 5% bovine blood agar plates at 35 °C bacterial strains were suspended in physiological saline in order to reach the density of 0.5 McFarland for inoculation. Stock solutions containing different concentrations of the substances were prepared in DMSO and H2O (1:1). These were twofold serially diluted from 256 to 0.5 mg/l in Mueller–Hinton broth, and 100 ml of each dilution was inoculated with 10 ml of each bacterial suspension.

SARS-CoV-2 [5] = assay: SARS-CoV-2 immunofluorescence assay (nucleoprotein expression) in Vero E6 cells; type: cell-based; conditions: three days
Method: as §2, §3

[6] = system: Enterococcus faecalis 51299 VanB; assay: MIC, broth micro dilution
Method: as §6

[7] = system: Staphylococcus epidermidis biofilm forming; assay: MIC, broth micro dilution
Method: as §6

SZ95 sebocytes [8] = assay: Viability MTT-assay on sebocytes, 48 h; type: cell-based, human; conditions: 30 μM
Method: as §1
The viability of HaCaT keratinocytes and SZ95 sebocytes was determined by MTT-assay[58] (Cat. No. M5655; Sigma-Aldrich) measuring the conversion of the tetrazolium salt to formazan by mitochondrial dehydrogenases. Cells were plated in 96-well plates (20,000 cells/well), and were treated as indicated. Cells were then incubated with 0.5 mg/ml MTT reagent for 3 h, and concentration of formazan crystals (as an indicator of number of viable cells) was determined colorimetrically at 565 nm by using FlexStation 3 multi-mode microplate reader (Molecular Devices). Results were expressed as percentage of vehicle-treated control regarded as 100%.

[9] = system: MRSA (Methicillin Resistant Staphylococcus aureus); assay: MIC, broth micro dilution
Method: as §6

Bacillus subtilis = assay: MIC, broth micro dilution
SZ95 sebocytes [10] = assay: Nile Red-assay, spontaneous sebaceous lipogenesis; type: cell-based, human; conditions: applied alone, 48 h
[11] = system: Staphylococcus epidermidis mecA; assay: MIC, broth micro dilution
MCF7 cells = assay: Antiproliferative MTT assay, 72 h; type: cell-based, human; conditions: for antiproliferative activity (in words): MCF7, 10 and 30 μM
From the text: (§4) Human adherent cancer cell lines A2780, MDA-MB-231 and MCF-7 were obtained from ECACC (European Collection of Cell Cultures, Salisbury, UK; Cat. No.93112519, 92020424, 86012803, respectively). SiHa cell line was obtained from ATCC (American Tissue Culture Collection, Manassas, Virginia, USA; Cat. No. HTB-35). All cell lines used for antiproliferative assay were maintained in Eagle's Minimum Essential Medium (EMEM) completed with 10% fetal bovine serum (FBS), 1% non-essential amino acid solution, and 1% penicillin, streptomycin, and amphotericin B mixture under cell culture conditions described before. All the utilized media and supplements were purchased from Lonza Group Ltd. (Basel, Switzerland).
(§5) The antiproliferative actions of the prepared molecules were determined by the same assay against a panel of adherent human cancer cell lines containing cervical (SiHa), ovarian (A2780) and breast (MCF7, MDA-MB-231) cell lines. Cells were plated onto 96-well microplates (5000 cells/well) and after an overnight incubation treated with two concentrations (10 or 30 μM) of the test substances for 72 h under cell culture conditions. Subsequently, MTT (5 mg/ml in phosphate buffer) was added to the wells, followed by incubation for 4 h. The supernatant was removed, the formazan crystals were then dissolved in 100 µl DMSO. Finally, absorbance values were determined by a microplate reader (BMG Labtech, Ortenberg, Germany) at 545 nm. Two independent measurements were performed with five parallel wells. Results were expressed as percentage of cell proliferation inhibition compared to non-treated control samples regarded as 0%.

[12] = system: MSSA (Methicillin Sensitive Staphylococcus aureus); assay: MIC, broth micro dilution
Method: as §6

A2780 cells = assay: Antiproliferative MTT assay, 72 h; type: cell-based, human; conditions: A2780, 10 and 30 μM
From the text: as §4, §5

SiHa cells = assay: Antiproliferative MTT assay, 72 h; type: cell-based, human; conditions: 10 and 30 μM
From the text: as §4, §5

MDA-MB-231 cells = assay: Antiproliferative MTT assay, 72 h; type: cell-based, human; conditions: MDA-MB-231, 10 and 30 μM
From the text: as §4, §5

in vitro = conditions: African green monkey
[13] = Enterococcus faecalis 15 376 VanA
[14] = Enterococcus faecalis 51299 VanB
[15] = Staphylococcus epidermidis biofilm forming
[16] = Staphylococcus epidermidis mecA
[17] = Severe acute respiratory syndrome coronavirus 2, Vero C1008, 72 h

Row | SMILES | MIC [1, 13] | effect on the lipogenic effect of arachidonic acid (AA) (SZ95 sebocytes [2]) | EC50 (SARS-CoV-2 [3]) | CC50 (Vero E6 cells) | MIC ([4]; Enterococcus faecalis 29 212) | EC50 (SARS-CoV-2 [5]) | MIC [6, 14] | MIC [7, 15] | viability (MTT signal intensity) (SZ95 sebocytes [8]) | MIC [9] | MIC (Bacillus subtilis) | spontaneous, homeostatic sebaceous lipogenesis (SZ95 sebocytes [10]) | MIC [11, 16] | antiproliferative activity (in words) (MCF7 cells) | MIC [12] | antiproliferative activity (in words) (A2780 cells) | antiproliferative activity (in words) (SiHa cells) | antiproliferative activity (in words) (MDA-MB-231 cells) | further results
1 | C=C(C)[C@@H]1CCC(C)=C[C@H]1c1c(O)cc(CCCCC)c2c1OCN(CCCC)C2 [Compound 8] | > 256 µg/mL | mimic this lipostatic effect | 21 ± 3.7 µM | > 100 µM | 2 µg/mL (≈ 4.86 µM) | 31 ± 1.1 µM | 2 µg/mL (≈ 4.86 µM) | > 256 µg/mL | cytotoxic effects | > 256 µg/mL | > 256 µg/mL | rather promote spontaneous, homeostatic sebaceous lipogenesis | > 256 µg/mL | more sensitive | > 256 µg/mL | – | – | – | promotion of spontaneous sebaceous lipogenesis, significance (SZ95 sebocytes [10]; 10 and 30 μM): statistically significant; inhibition of the proliferation (in words) (MCF7 cells; MCF7, 10 μM): much more potent than the parent CBD
2 | C#CCN1COc2c(c(CCCCC)cc(O)c2[C@@H]2C=C(C)CC[C@H]2C(=C)C)C1 [Compound 11] | > 256 µg/mL | – | 17 ± 1.5 µM | 77 ± 2.6 µM | 128 µg/mL (≈ 325 µM) | 33 ± 1.4 µM | 128 µg/mL (≈ 325 µM) | > 256 µg/mL | – | > 256 µg/mL | > 256 µg/mL | – | > 256 µg/mL | None of the other tested CBD analogs (9, 11, and 12) exhibited substantial antiproliferative activity | > 256 µg/mL | None of the other tested CBD analogs (9, 11, and 12) exhibited substantial antiproliferative activity | None of the other tested CBD analogs (9, 11, and 12) exhibited substantial antiproliferative activity | None of the other tested CBD analogs (9, 11, and 12) exhibited substantial antiproliferative activity | –
3 | CCCCCc1cc(O)c(C/C=C(\C)CCC=C(C)C)c2c1CN(CCCC)CO2 [Compound 16a] | – | suppress the effect of AA | – | – | – | – | – | – | tended to suppress viability | – | – | mimicked the previously reported weak lipogenic effect of CBG | – | – | – | – | – | – | –
4 | CCCCCc1c2c(c(C/C=C(\C)CCC=C(C)C)c3c1CN(CCCC)CO3)OCN(CCCC)C2 [Compound 16b] | > 256 µg/mL | – | > 7.7 µM | 7.7 ± 3.2 µM | 64 µg/mL (≈ 125 µM) | – | 64 µg/mL (≈ 125 µM) | > 256 µg/mL | – | > 256 µg/mL | > 256 µg/mL | – | > 256 µg/mL | more active than CBG | > 256 µg/mL | more active than CBG | more active than CBG | more active than CBG | –
5 | C#CCN1COc2c(C/C=C(\C)CCC=C(C)C)c(O)cc(CCCCC)c2C1 [Compound 18] | > 256 µg/mL | – | 15 ± 0.94 µM | ~28 µM | 64 µg/mL (≈ 162 µM) | > 28 µM | 64 µg/mL (≈ 162 µM) | > 256 µg/mL | – | > 256 µg/mL | > 256 µg/mL | – | > 256 µg/mL | – | > 256 µg/mL | – | – | – | –
6 | CCCCCc1c(CN(CC)CC)c(O)c(C/C=C(\C)CCC=C(C)C)c(O)c1CN(CC)CC [Compound 21b] | – | suppress the effect of AA | – | – | – | – | – | – | rather increased MTT signal intensity | – | > 256 µg/mL | mimicked the previously reported weak lipogenic effect of CBG | – | – | – | – | – | – | MIC ([1]; Enterococcus faecalis, 15376VANA): > 256 µg/mL; EC50 (SARS-CoV-2 [3]; [17]): 12 ± 0.99 µM; IC50 (SARS-CoV-2 [3]; Severe acute respiratory syndrome coronavirus 2, Vero C1008, read-out: IC50 (anti-SARS-CoV-2 activity, Figure 8)): 12 µM; MIC ([4]; Enterococcus faecalis, 29212): 64 µg/mL (≈ 131 µM); EC50 (SARS-CoV-2 [5]; [17]): > 100 µM; MIC ([6]; Enterococcus faecalis, 51299VANB): 64 µg/mL (≈ 131 µM); MIC ([7]; Staphylococcus epidermidis): > 256 µg/mL; MIC ([9]; Staphylococcus aureus): > 256 µg/mL; MIC ([11]; Staphylococcus epidermidis): > 256 µg/mL; CC50 (in vitro): > 100 µM; MIC ([12]; Staphylococcus aureus): > 256 µg/mL
